Series [1] deals with TNF-α-induced VCAM-1 mRNA expression. Conditions: human aortic endothelial cells, Northern blot analysis; ref Dagia et al., 2004; cited from earlier work.
Series [2] deals with TNF-α-induced VCAM-1 protein expression. Kind of series: ELISA of 24 h TNF-α-induced VCAM-1 protein expression on HUVEC. The format is cell-based, human. To be noted: for inhibition of the VCAM-1 protein expression elicited by TNF-α: 50 μM compound. On the technique in general: In an ELISA, binding on a coated surface is turned into a signal by an enzyme label.
For series [3], the system named is abnormal MHC gene expression in thyroid epithelial cells. To be noted: ref Giuliani et al., 2010; cited from earlier work.
Series [4] concerns HUVEC. Nature of the series: Cell viability. The class given is cell-based, human. To be noted: 24 h, linear regression, mean of three experiments.

Where two headings read alike, the source gives them in different places.

Consider `Cn1c(-c2ccccc2)c[nH]c1=S` [1a, 4-phenyl-3-methyl-1, 3 imidazole-2-thione], for which, in series [1], the “effect on 24 h TNF-α-induced VCAM-1 mRNA expression” value is given as “inhibits”. Besides, in series [2] (24 h TNF-α), the “inhibition of the VCAM-1 protein expression elicited by TNF-α” value was “over 40%”. Also, the IC50 in series [2] (read-out: IC50, concentration of compound needed to inhibit 50% of the VCAM-1 expression, 10 ng/ml TNF-α, 24 h, ELISA, linear regression, average of at least three experiments) was 66 µM. The “suppression of abnormal MHC gene expression compared to MMI” value in series [3] is 70–100 fold.
Regarding `Cn1cc[nH]c1=S` [MMI, 3-methyl-1, 3 imidazole-2 thione], in series [2] (24 h TNF-α), the “inhibition of the VCAM-1 protein expression elicited by TNF-α” value is “no inhibitory effect”. For the same compound, the “inhibition of VCAM-1 protein expression” value in series [2] (70 μM compound, 24 h TNF-α) is recorded as “little, if any, inhibition”. Also, the IC50 in series [2] (Homo sapiens, 24 h, read-out: IC50, concentration of compound needed to inhibit 50% of the VCAM-1 expression) was found to be 1140 µM. For the same compound, the “TC50, concentration of compound needed to reduce the MTS signal by 50% of the control value” in series [4] is 2450 µM.

Values taken from article PMC5019189 (European journal of pharmacology, 2015).
